Laboratory results published in patent US4286089A, “7-Acyl-3-(substituted tetrazolyl thiomethyl)cephalosporins” (SmithKline Corporation, priority 1974, dated 1981).

System: E. coli 12140
Assay: In vivo mouse protection, E. coli 12140
Settings: Escherichia coli, po, E. coli 12140, p.o.
Description: Compound names corresponding to numbers are given in the experimental section. For comparative purposes, data for cephamandole, which is 7-mandelamido-3-(1-methyltetrazol-5-ylthiomethyl)-3-cephem-4-carboxylic acid, is also given in Tables 1 and 2.

`N[C@@H](C(=O)NC1C(=O)N2C(C(=O)O)=C(CSc3nnnn3CC(=O)O)CS[C@H]12)c1ccc(O)cc1` (stereo partly drawn) [II, 7-(D-α-Amino-4-hydroxyphenylacetamido)-3-(1-carboxymethyl-tetrazol-5-ylthiomethyl)-3-cephem-4-carboxylic acid] showed an ED50 of 200 mg/kg.
